From patent US6696482B2, “Formulations for hydrophobic pharmaceutical agents” (Sugen, Inc., priority 1997, dated 2004)
≈ marks a conversion by molar mass, not a printed value. Where two headings read alike, the source gives them in different places.

Tests used:
[1] = Solubility of the indolinone-based compound in water and excipients; type: physicochemical
Protocol: An increase in the indolinone-based compound's aqueous solubility in hydrotropic solute solutions like nicotinamide and pyridoxine hydrochloride was observed. It is soluble (15-20 mg/mL) in polar excipients like polyethylene glycols of 300 and 400 MW.
(§1) The indolinone-based compound is a planar aromatic compound and is non-ionizable in the pharmaceutically acceptable range.

[2] = Log of ratio of octanol to water solubility (individually determined); type: physicochemical; conditions: solubilities individually determined
Source text: as §1

[3] = test system: VEGF-induced endothelial cell growth; assay: Inhibition of VEGF-induced endothelial cell growth; type: cell-based; conditions: in words
Protocol: Indolinone-based compounds of the invention have been tested for their ability to activate or inhibit protein kinases in biological assays. The methods used to measure indolinone-based compound modulation of protein kinase function are described in U.S. application Ser. No. 08/702,282, filed Aug. 23, 1996, incorporated herein by reference in its entirety, a including any drawings. In particular, indolinone-based compounds of the invention were tested for their ability to inhibit the FLK protein kinase.

Structure (SMILES) | melting point | further results
CN(C)CCCOc1cccc2nc(N)nc(N)c12 [Procedure B 9, 2,4-Diamino-5-(3-dimethylaminopropoxy)quinazoline] | 193 to 195 °C | –
CN(C)c1cccc(Oc2cccc3nc(N)nc(N)c23)c1 [Procedure B 3, 2,4-Diamino-5-(3-dimethylaminophenoxy)quinazoline] | 224 to 225 °C (dec.) | –
Nc1nc(N)c2c(Oc3cccc(Br)c3)cccc2n1 [Procedure B 5, 2,4-Diamino-5-(3-bromophenoxy)quinazoline] | 292 to 295 °C | –
Cc1cc(C)c(C=C2C(=O)Nc3ccccc32)[nH]1 [3-[(2,4-dimethylpyrrol-5-yl)methylene]-2-indolinone] | – | influence of pH of the aqueous media on aqueous solubility [1]: did not influence; solubility ([1]; aromatic solvents like benzyl alcohol, organic solvent or mixture, read-out: solubility in aromatic solvents): 10 to 15 mg/mL (≈ 42 to 62.9 mM); aqueous solubility in hydrotropic solute solutions ([1]; hydrotropic solute solutions like nicotinamide and pyridoxine hydrochloride): increase; solubility in water, water miscible non-aqueous solvents, and oils ([1]; in words): low solubility; solubility ([1]; polyethylene glycols of 300 and 400 MW, organic solvent or mixture, read-out: solubility in polar excipients): 15 to 20 mg/mL (≈ 62.9 to 83.9 mM); solubility ([1]; polyglycolized lipids like LABPASOL and GELUCIRE, oil or lipid, read-out: solubility in polyglycolized lipids): 25 to 30 mg/mL (≈ 105 to 126 mM); solubility ([1]; water, read-out: solubility in water): 1e-05 mg/mL (≈ 4.2e-05 mM); log of ratio of octanol to water solubility [2]: 5.6; inhibition of VEGF-induced endothelial cell growth [3]: specific and potent inhibitor
Nc1nc(N)c2c(Oc3ccccc3F)cccc2n1 [Procedure B 4, 2,4-Diamino-5-(2-fluorophenoxy)quinazoline] | 301 to 303 °C | –
Nc1nc(N)c2c(Oc3ccc(OCc4ccccc4)cc3)cccc2n1 [Procedure B 8, 2,4-Diamino-5-(4-benzyloxyphenoxy)quinazoline] | 175 to 177 °C | –
COc1ccccc1Oc1cccc2nc(N)nc(N)c12 [Procedure B 6, 2,4-Diamino-5-(2-methoxyphenoxy)quinazoline] | 208 to 209 °C (dec.) | –
CC(C)(C)c1ccc(Oc2cccc3nc(N)nc(N)c23)cc1 [Procedure B 1, 2,4-Diamino-5-(4-tert-butylphenoxy)quinazoline] | 226 to 228 °C | –
COc1ccc(Oc2cccc3nc(N)nc(N)c23)cc1OC [Procedure B 2, 2,4-Diamino-5-(3,4-dimethoxyphenoxy)quinazoline] | 301 to 302 °C | –
COc1ccc(Oc2cccc3ncnc(N)c23)cc1 [Procedure C 1, 4-Amino-5-(4-methoxyphenoxy)quinazoline] | 192 to 195 °C | –

Further lines, with some results ahead:

melting point | Structure (SMILES) | further results
248 to 250 °C | Nc1nc(N)c2c(-n3cccc3)cccc2n1 [Procedure D 4, 2,4-Diamino-5-(pyrrol-1-yl)quinazoline] | –
170 to 171 °C | Nc1ncnc2cccc(Oc3ccc(OCc4ccccc4)cc3)c12 [Procedure C 4, 4-Amino-5-(4-benzyloxyphenoxy)quinazoline] | –
201 to 203 °C | Nc1ncnc2cccc(Oc3ccc4c(c3)OCO4)c12 [Procedure C 5, 4-Amino-5-(3,4-methylenedioxyphenoxy) quinazoline] | –
179 to 181 °C | CN(C)c1cccc(Oc2cccc3ncnc(N)c23)c1 [Procedure C 2, 4-Amino-5-(3-dimethylaminophenoxy)quinazoline] | –
188 to 190 °C | Nc1ncnc2cccc(Oc3ccc(F)cc3)c12 [Similar synthetic processes 1, 4-Amino-5-(4-fluorophenoxy)quinazoline] | –
245 to 247 °C | Nc1ncnc2cccc(Oc3cccnc3)c12 [Procedure C 3, 4-Amino-5-(3-pyridinoxy)quinazoline] | –
